The values that follow come from ChEMBL document CHEMBL1135759, “Exploring the role of bromine at C(10) of (+)-4-[2-[4-(8-chloro-3,10-dibromo- 6,11-dihydro-5H-benzo[5,6]cyclohepta[1,2-b]pyridin-11(R)-yl)-1-piperidinyl]-2- oxoethyl]-1-piperidinecarboxamide (Sch-66336): the discovery of indolocycloheptapyridine inhibitors of farnesyl protein transferase” (J Med Chem, 2002).

The experiment has as its target Protein farnesyltransferase (Homo sapiens, UniProt P49354+P49356). As to the kind of experiment: Inhibition of Protein farnesyltransferase in an enzyme assay with His6-H-Ras-CVLS.

Regarding `CCCc1c[nH]c2c(Cl)cc3c(c12)[C@@H](C1CCN(C(=O)Cc2cc[n+]([O-])cc2)CC1)c1ncccc1CC3` (stereo in doubt; (+)-10b), the IC50 amounted to 65 nM.

The molecule `CCCCc1c[nH]c2c(Cl)cc3c(c12)[C@@H](C1CCN(C(=O)Cc2cc[n+]([O-])cc2)CC1)c1ncccc1CC3` (stereo in doubt; (+)-10c) yielded an IC50 of 69 nM.

On to `O=C(Cc1cc[n+]([O-])cc1)N1CCC([C@H]2c3ncccc3CCc3cc(Cl)cc(Br)c32)CC1`, for which the IC50 is 19 nM.

The molecule `Cc1c[nH]c2c(Cl)cc3c(c12)[C@@H](C1CCN(C(=O)Cc2cc[n+]([O-])cc2)CC1)c1ncccc1CC3` (stereo in doubt; (+)-10a) registered an IC50 of 7.4 nM.

`Cc1c[nH]c2c(Cl)cc3c(c12)[C@@H](C1CCN(C(=O)Cc2cc[n+]([O-])cc2)CC1)c1ncc(Br)cc1CC3` had an IC50 of 2.6 nM.

Take `Cc1c[nH]c2c(Cl)cc3c(c12)[C@@H](C1CCN(C(=O)Cc2cc[n+]([O-])cc2)CC1)c1ncccc1CC3` (stereo in doubt; (-)-10a): half-maximal inhibition (IC50) was put at 28 nM.

Turning to `CCCCc1c[nH]c2c(Cl)cc3c(c12)[C@@H](C1CCN(C(=O)Cc2cc[n+]([O-])cc2)CC1)c1ncccc1CC3` (stereo in doubt; (-)-10c), the IC50 was > 180 nM.

Take `Cc1cn(C)c2c(Cl)cc3c(c12)C(C1CCN(C(=O)Cc2cc[n+]([O-])cc2)CC1)c1ncccc1CC3` (single isomer, unassigned; (+)): the IC50 is > 190 nM.

Regarding `O=C(Cc1cc[n+]([O-])cc1)N1CCC(C2c3ncccc3CCc3cc(Cl)c4[nH]ccc4c32)CC1` (single isomer, unassigned; (+)), half-maximal inhibition (IC50) required 42 nM.

Take `O=C(Cc1cc[n+]([O-])cc1)N1CCC([C@@H]2c3ccc(Cl)cc3CCc3cc(Br)cnc32)CC1`: the IC50 is 34 nM.

With `CCCc1c[nH]c2c(Cl)cc3c(c12)[C@@H](C1CCN(C(=O)Cc2cc[n+]([O-])cc2)CC1)c1ncccc1CC3` (stereo in doubt; (-)-10b), the IC50 is > 190 nM.
